In patent US11542262B2, “Phosphatidylinositol 3-kinase inhibitors” (NANJING ZHENGXIANG PHARMACEUTICALS CO., LTD., priority 2019, dated 2023):
Where two headings read alike, the source gives them in different places.

Legend:
[1] = target: PI3Kα (Homo sapiens, UniProt P42336); assay: ADP-Glo luminescent assay, enzymatic activity of PI3K alpha; type: biochemical; conditions: ATP 25 μM; read-out: PI3K alpha (nM) inhibitory activity (IC50)
Procedure: (§1) Enzymatic activity of PI3K isoforms: Enzymatic activity of the class I PI3K isoforms in the presence of the compounds of Table 1 was measured using ADP-Glo luminescent assay against PI3Kα, PI3Kβ, PI3Kδ and PI3Kγ with ATP concentration at 25 μM. IPI-549 was used as the reference compound. The compounds would be tested from 1 or 10 μM, 3-fold dilution for 10 doses, in duplicate.
(§2) Compound preparation: Dilute a compound to 100× of the final desired highest inhibitor concentration in reaction by 100% DMSO. Transfer 100 μl of this compound dilution to a well in a 96-well plate and serially dilute it with DMSO for a total of 10 concentrations.
(§3) Kinase reaction: Prepare a solution of PI3K in 1× kinase buffer at 2-fold the final concentration of each reagent in the assay. Control wells contain 1× kinase buffer without enzyme. Prepare substrate solution of PIP2 substrate and ATP in 1× kinase reaction buffer at 2-fold of the final concentration. Add concentration substrate solution to each well to the final concentration. Cover the assay plate, shake to mix, and incubate at room temperature for 1 hour. Add 5 μl of ADP-Glo reagent to each well to stop the reaction. Mix briefly with a quick spin, shake slowly on the shaker for 120 min. Add 10 ul Kinase Detection Reagent to each well, shake 1 min, equilibrate for 30 min before reading on a luminescence plate reader.
(§4) Data Analysis: Convert RLU values to percent inhibition values as Percent inhibition=(max−sample RLU)/(max−min)*100. “min”—no enzyme control; “max”—DMSO control. Fit the data in XLFit excel add-in version 5.4.0.8 to obtain IC50 values. Y=Bottom+(Top−Bottom)/(1+(IC50/X)^HillSlope).

[2] = target: T1, PI3K gamma (Mus musculus, UniProt Q9JHG7); assay: Raw264.7 cell assay: phosphorylation of AKT in C5a stimulated RAW264.7 cells (AlphaLISA); type: cell-based; conditions: pAKT, read-out: PI3K gamma Raw264.7 cell (nM) cellular activity (IC50)
T1 construct: endogenous in cells; host or cells: RAW264.7
T1 sequence (Q9JHG7 whole entry): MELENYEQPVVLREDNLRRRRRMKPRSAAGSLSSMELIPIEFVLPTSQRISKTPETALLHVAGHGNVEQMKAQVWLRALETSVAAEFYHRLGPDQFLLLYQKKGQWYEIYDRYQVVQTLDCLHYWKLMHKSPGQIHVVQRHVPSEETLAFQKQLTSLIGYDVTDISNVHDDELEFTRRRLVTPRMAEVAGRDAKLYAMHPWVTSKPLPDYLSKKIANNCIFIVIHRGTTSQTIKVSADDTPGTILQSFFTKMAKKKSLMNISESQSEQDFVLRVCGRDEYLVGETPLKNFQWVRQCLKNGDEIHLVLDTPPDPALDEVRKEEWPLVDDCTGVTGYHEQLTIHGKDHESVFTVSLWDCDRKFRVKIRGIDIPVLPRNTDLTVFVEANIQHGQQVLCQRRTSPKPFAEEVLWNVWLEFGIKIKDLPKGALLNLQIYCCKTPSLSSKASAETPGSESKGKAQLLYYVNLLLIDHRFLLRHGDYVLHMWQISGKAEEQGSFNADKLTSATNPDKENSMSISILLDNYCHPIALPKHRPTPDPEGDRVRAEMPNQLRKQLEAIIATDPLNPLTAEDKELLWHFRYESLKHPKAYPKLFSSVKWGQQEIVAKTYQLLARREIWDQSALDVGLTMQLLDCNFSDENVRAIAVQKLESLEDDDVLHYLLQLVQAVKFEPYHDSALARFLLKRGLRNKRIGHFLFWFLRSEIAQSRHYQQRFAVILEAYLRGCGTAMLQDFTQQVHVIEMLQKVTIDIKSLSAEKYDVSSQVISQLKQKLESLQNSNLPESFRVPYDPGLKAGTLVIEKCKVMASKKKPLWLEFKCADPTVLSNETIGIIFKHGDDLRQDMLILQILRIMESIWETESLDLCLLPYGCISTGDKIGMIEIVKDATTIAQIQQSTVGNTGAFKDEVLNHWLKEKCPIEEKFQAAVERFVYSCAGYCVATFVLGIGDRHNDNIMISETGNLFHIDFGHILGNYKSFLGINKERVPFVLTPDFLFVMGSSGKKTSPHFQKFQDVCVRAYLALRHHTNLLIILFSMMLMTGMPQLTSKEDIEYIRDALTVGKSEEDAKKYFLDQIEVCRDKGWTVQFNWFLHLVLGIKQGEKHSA
T1 sequence (Q5SW28 whole entry partner): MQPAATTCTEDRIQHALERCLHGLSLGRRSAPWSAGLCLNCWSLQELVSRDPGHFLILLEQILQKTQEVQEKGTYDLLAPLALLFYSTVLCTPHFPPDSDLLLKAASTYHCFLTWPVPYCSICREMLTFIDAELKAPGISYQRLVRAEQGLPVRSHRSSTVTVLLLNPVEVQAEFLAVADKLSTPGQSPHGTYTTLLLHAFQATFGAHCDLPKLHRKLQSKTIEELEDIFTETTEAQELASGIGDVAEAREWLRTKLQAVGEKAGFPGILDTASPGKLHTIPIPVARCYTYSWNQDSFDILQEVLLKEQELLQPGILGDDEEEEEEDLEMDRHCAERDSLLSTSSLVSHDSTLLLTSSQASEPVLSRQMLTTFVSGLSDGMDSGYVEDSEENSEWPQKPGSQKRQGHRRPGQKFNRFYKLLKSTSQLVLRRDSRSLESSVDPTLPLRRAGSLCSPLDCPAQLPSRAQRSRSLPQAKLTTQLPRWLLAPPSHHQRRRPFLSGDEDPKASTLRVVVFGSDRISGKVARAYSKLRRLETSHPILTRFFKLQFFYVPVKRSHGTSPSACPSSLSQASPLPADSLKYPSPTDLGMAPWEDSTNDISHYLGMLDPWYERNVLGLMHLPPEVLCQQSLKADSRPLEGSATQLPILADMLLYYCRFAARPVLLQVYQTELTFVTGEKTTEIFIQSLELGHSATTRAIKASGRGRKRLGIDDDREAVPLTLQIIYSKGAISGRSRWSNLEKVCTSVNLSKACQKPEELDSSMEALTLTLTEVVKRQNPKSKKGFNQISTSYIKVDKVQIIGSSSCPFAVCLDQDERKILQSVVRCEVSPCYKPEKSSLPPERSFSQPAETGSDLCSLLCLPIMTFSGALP
How it was run: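 Passage-15 RAW264.7 cells were plated and rested 2 h at 37 °C, then given compound for 30 min at 37 °C before C5a stimulation. Lysates went to phospho-AKT AlphaLISA with a 2 h dark incubation at 25 °C. IC50 came from a four-parameter logistic fit of inhibition against log concentration.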

[3] = target: PI3Kβ (Homo sapiens, UniProt P42338); assay: ADP-Glo luminescent assay, enzymatic activity of PI3K beta; type: biochemical; conditions: ATP 25 μM; read-out: PI3K beta (nM) inhibitory activity (IC50)
Sequence of PI3Kβ (P42338 whole entry, species assumed): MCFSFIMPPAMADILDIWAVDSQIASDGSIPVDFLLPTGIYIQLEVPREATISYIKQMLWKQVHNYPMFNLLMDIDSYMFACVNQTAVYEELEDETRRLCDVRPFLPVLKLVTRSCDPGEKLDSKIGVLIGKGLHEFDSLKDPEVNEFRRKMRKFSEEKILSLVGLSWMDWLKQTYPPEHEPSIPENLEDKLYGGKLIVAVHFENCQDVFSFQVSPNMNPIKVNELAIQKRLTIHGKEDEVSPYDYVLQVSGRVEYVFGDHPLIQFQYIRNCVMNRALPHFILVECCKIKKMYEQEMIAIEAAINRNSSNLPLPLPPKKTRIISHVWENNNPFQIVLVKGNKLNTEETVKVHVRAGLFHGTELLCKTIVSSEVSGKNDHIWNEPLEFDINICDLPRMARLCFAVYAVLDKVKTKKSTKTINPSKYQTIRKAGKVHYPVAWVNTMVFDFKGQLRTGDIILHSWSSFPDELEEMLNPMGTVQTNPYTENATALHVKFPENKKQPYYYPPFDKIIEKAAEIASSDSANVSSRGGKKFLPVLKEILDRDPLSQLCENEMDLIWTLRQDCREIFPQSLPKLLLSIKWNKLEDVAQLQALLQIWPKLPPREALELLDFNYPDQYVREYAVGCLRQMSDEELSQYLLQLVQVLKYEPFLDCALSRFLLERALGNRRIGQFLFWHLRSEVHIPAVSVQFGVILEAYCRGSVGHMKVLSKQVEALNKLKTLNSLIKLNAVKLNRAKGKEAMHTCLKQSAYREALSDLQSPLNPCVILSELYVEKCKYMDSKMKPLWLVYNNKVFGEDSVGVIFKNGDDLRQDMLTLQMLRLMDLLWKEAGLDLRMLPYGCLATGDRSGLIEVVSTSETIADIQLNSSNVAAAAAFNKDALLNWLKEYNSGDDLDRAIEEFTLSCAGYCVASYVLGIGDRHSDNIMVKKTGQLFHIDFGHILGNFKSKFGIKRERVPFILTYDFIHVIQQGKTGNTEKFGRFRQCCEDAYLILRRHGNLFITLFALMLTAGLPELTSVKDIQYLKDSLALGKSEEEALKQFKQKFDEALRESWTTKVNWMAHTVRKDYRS
Sequence of PI3Kβ (P27986 whole entry partner, species assumed): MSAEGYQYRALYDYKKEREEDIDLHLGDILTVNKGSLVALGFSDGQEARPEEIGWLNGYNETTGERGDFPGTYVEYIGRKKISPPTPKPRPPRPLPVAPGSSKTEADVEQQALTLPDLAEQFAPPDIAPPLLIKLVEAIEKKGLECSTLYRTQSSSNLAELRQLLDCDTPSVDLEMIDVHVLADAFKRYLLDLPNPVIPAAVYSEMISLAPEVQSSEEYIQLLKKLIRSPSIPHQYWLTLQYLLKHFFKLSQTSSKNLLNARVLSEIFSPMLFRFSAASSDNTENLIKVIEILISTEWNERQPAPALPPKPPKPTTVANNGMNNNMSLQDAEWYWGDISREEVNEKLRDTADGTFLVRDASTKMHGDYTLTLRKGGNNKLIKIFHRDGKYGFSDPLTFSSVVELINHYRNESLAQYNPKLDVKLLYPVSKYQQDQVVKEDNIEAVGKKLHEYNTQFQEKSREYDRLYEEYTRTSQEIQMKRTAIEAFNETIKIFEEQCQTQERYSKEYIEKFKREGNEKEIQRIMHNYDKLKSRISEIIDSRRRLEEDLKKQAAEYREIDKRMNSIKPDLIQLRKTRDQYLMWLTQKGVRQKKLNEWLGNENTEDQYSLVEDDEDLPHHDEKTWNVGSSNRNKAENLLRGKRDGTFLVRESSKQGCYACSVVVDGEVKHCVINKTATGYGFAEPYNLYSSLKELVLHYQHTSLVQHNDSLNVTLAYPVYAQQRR
Procedure: as §1, §2, §3, §4

[4] = target: PI3Kγ (Homo sapiens, UniProt P48736); assay: ADP-Glo luminescent assay, enzymatic activity of PI3K gamma; type: biochemical; conditions: ATP 25 μM; read-out: PI3K gamma (nM) inhibitory activity (IC50)
[5] = Pharmacokinetics in mice (plasma and brain concentrations); type: in vivo, CD-1 mice; conditions: male CD1 mouse, oral gavage 20 mg/kg
Procedure: The dosing solution was administered to male CD-1 mice via oral gavage (PO) at 20 mg/kg. Blood and brain tissue samples were collected at 0.5, 2 and 8 hours post-dose. The blood samples were then centrifuged for 5 minutes in a centrifuge refrigerated at 4° C. The brain samples after blood removal were homogenized in water.

[6] = system: MOG35-55 induced EAE; assay: Efficacy on MOG35-55 induced EAE; type: in vivo, C57BL/6 mice; conditions: 20 mg/kg and 80 mg/kg BID PO, 14 days from day 10, FIG. 2
[7] = system: 4T1 cells; assay: Anti-tumor efficacy in 4T1 syngeneic mouse tumor model; type: in vivo; conditions: 4T1 in BALB/c mice, oral gavage 100 mg/kg, FIG. 1
Procedure: BALB/c mice were inoculated subcutaneously at the fourth mammary pad with 4T1 cells for tumor development. On the next day after tumor cell inoculation, the mice were assigned into 2 groups using stratified randomization with 10 mice in each group based upon their body weight and inoculation order. […] The tumor sizes were measured three times per week during the treatment. Tumor volume was calculated by the formula: length×width^2/2.

Sequence of PI3Kα (P42336 whole entry, species assumed, canonical isoform): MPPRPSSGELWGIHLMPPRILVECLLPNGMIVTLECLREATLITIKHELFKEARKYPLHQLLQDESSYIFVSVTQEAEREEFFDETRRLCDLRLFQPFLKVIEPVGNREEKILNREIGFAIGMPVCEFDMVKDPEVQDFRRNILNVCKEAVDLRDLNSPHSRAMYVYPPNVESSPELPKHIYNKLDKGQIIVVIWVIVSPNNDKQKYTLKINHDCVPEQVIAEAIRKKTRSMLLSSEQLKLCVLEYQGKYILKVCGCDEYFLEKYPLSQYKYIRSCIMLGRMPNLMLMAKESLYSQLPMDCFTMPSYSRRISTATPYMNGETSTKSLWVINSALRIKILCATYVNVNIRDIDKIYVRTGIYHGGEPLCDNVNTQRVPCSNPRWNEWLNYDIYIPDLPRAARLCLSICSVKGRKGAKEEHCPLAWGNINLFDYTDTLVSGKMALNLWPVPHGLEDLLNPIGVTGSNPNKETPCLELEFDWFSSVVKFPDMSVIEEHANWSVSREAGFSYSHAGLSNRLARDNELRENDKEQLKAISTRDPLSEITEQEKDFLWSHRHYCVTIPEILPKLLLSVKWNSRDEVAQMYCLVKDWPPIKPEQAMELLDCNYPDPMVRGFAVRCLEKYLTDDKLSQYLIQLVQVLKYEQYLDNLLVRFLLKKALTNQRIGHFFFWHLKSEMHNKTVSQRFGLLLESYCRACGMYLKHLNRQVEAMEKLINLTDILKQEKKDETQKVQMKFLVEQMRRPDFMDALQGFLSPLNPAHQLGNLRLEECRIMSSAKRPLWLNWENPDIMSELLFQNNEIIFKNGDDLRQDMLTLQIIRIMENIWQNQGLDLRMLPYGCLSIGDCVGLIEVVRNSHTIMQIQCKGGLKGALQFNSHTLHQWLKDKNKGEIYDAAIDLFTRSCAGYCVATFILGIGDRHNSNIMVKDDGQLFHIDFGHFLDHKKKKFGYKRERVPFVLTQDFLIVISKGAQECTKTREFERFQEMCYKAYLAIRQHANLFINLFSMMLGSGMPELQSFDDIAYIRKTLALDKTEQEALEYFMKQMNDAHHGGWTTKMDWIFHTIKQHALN
Sequence of PI3Kα (P27986 whole entry partner, species assumed, canonical isoform): as the sequence (P27986 whole entry partner, species assumed) above

IC50 [1] [nM] | IC50 [2] [nM] | IC50 [3] [nM] | IC50 [4] [nM] | concentration at 0.5 h ([5]; CD-1, brain, read-out: Brain) [ng/g] | concentration at 2 h ([5]; CD-1, brain, read-out: Brain) [ng/g] | concentration at 8 h ([5]; CD-1, brain, read-out: Brain) [ng/g] | concentration at 0.5 h ([5]; CD-1, plasma, read-out: Plasma) [ng/mL] | concentration at 2 h ([5]; CD-1, plasma, read-out: Plasma) [ng/mL] | concentration at 8 h ([5]; CD-1, plasma, read-out: Plasma) [ng/mL] | Structure (SMILES) | clinical disability symptom (EAE clinical score) [6] | tumor growth (tumor volume) [7]
3890 | 4.3 | > 10000 | 1.3 |  |  |  |  |  |  | CC(=O)Nc1nc(C)c(-c2cc3c(c(NS(C)(=O)=O)n2)C(=O)N([C@@H](C)C2CC2)C3)s1 [Compound 20, (S)-N-(5-(2-(1-cyclopropylethyl)-4-(methylsulfonamido)-3-oxo-2,3-dihydro-1H-pyrrolo[3,4-c]pyridin-6-yl)-4-methylthiazol-2-yl)acetamide] |  | 
3330 | 1.6 | > 10000 |  | 2490 | 473 | 454 | 2800 | 1200 | 1370 | CC(=O)Nc1nc(C)c(-c2cc3c(c(N4CCOCC4)n2)C(=O)N([C@@H](C)C2CC2)C3)s1 [Compound 34, (S)-N-(5-(2-(1-cyclopropylethyl)-4-morpholino-3-oxo-2,3-dihydro-M-pyrrolo[3,4-c]pyridin-6-yl)-4-methylthiazol-2-yl)acetamide] | significantly ameliorated the clinical disability symptom | significantly suppressed tumor growth
